Assay results as given in paper PMC7367283, “A PIP2 substitute mediates voltage sensor-pore coupling in KCNQ activation” (Communications Biology, 2020).
“And” between values parts separate entries of the source, which are not always exact repeats. Equal entries are not always repeated.

Tested on: guinea pig ventricular myocytes
Assay: Action potential recording in ventricular myocytes with normal action potentials
Assay type: cell-based
Set-up: actional potential duration (APD), Fig. 7h: unit not given here
Conditions: for actional potential duration (APD), Fig. 7h: Control-Group, individual cells
Protocol: Fig. 7 Effects of CP1 on IKs and action potentials in cardiomyocytes. a IKs currents in guinea pig ventricular myocytes in the absence and presence of 30 µM CP1 in the whole-cell patch-clamp configuration. Holding potential: −40 mV; testing potentials: −20 to +60 mV with 10-mV increment; returning potential: −20 mV. […] Guinea pig ventricular myocytes were first perfused with 10 µM CP1 and 10 µM chromanol. After APD reached steady state, 10 µM CP1 was constitutively perfused alone. Last, CP1 was washed out for near-full reversal of APD shortening. g Effects of 0.2 µM CP1 on LQT action potentials. To mimic the LQT, 100 µM moxifloxacin was applied 2 h before the treatment of CP1. h Change of action potential duration after application of different [CP1]s (n = 5–7). Tukey–Kramer ANOVA test was used to compare control cells in different CP1 concentration, # is significant at P < 0.05. Unpaired two-tailed Student t tests were used to compare control and moxifloxacin cells at different CP1 concentration: * is significant at P < 0.05.
In ventricular myocytes, the duration and the morphology of action potentials are determined by various ion channels. Mutations in many of these channels and drugs that modify channel functions, such as an increase in inward Na^+ currents or decrease in outward K^+ currents, may lead to a prolonged action potential duration, which results in an inherited or acquired long QT syndrome that predisposes afflicted patients to cardiac arrhythmia. An enhancement of the outward IKs current may be able to counter these mutations or drug effects, and restore the action potential duration to more normal values. […] Next, we used an IKr blocker (Moxifloxacin, Moxi) to prolong action potentials and then applied various concentrations of CP1.
The use of guinea pigs was approved by the Stony Brook University Institutional Animal Care and Use Committee. Single ventricular myocytes were acutely enzymatically isolated from guinea pig heart as previously described. Guinea pigs, weighing 300–500 g, were sacrificed by peritoneal injection of sodium pentobarbitone (1 ml, 390 mg/ml). The isolated cells were stored in KB solution containing (in mM) 83 KCl, 30 K2HPO4, 5 MgSO4, 5 Na pyruvate, 5 β-OH-butyric acid, 20 creatine, 20 taurine, 10 glucose, and 0.5 EGTA, pH 7.2.
Action potentials were recorded with whole-cell patch-clamp recording techniques. Current-clamp configuration was used. Freshly isolated guinea pig cardiac myocytes were placed at 1 Hz with a stimulus of 180-pA amplitude and 10-mS duration. The APD was determined at 90% repolarization. Several minutes were allowed for the APD to reach steady state before data were collected. Typical Tyrode mimic AP Solution for action potential recording was used. The bath solution is composed of (in mM) 140 NaCl, 3 KCl, 1 MgCl2, 1.8 CaCl2, 10 HEPES, and 10 Glucose, pH 7.4. The pipette solution is composed of (in mM) 115 K-aspartic acid, 35 KOH, 3 MgCl2, 10 HEPES, 11 EGTA, 5 Glucose, and 3 MgATP, pH 7.4.

## O=S(=O)([O-])Oc1c(-c2sc3c(ccc4cccc(Cl)c43)c2OS(=O)(=O)[O-])[nH]c2ccc(Br)cc12.[Na+].[Na+] [CP1, DISODIUM 5-BROMO-2-[9-CHLORO-3-(SULFONATOOXY) NAPHTHO [1,2-B] THIEN-2-YL]-1H-INDOL-3-YL SULFATE]
0.2 µM CP1, control myocytes
  action potential duration: did not alter action potential duration
10 µM CP1 alone
  action potential duration (APD): significantly shortened
10 µM CP1 perfused together with 10 µM chromanol 293B
  action potential duration (APD): not changed
0.6 and 6 µM CP1
  action potentials in control cells: shortened
0.2 µM CP1
  actional potential duration (APD), Fig. 7h: 682 and 570 and 576 and 550 and 596 and 520
0.6 µM CP1
  actional potential duration (APD), Fig. 7h: 473 and 609 and 463 and 428 and 542 and 511 and 475
6 µM CP1
  actional potential duration (APD), Fig. 7h: 347 and 378 and 362 and 454
